In ChEMBL document CHEMBL1909046, “DrugMatrix in vitro pharmacology data”:

Columns and labels:
[1] = target: T1, Type-2 angiotensin II receptor (Homo sapiens, UniProt P50052); type: cell-based; details: cho-k1; note: in other assays of this panel Not Active means under 50% inhibition at 10 µM
T1 sequence (P50052 whole entry): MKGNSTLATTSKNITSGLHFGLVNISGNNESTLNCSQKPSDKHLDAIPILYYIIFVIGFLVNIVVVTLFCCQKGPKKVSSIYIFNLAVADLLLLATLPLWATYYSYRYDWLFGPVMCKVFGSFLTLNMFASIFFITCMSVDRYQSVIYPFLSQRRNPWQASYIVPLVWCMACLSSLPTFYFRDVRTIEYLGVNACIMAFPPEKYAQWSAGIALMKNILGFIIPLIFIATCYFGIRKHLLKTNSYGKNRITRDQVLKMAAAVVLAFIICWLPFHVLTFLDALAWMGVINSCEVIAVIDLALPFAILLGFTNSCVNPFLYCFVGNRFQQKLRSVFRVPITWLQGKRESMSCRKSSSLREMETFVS

[2] = target: T2, Calcitonin receptor (Homo sapiens, UniProt P30988); type: cell membranes, Membrane; details: t47d; note: in other assays of this panel Not Active means under 50% inhibition at 10 µM
T2 sequence (P30988 whole entry): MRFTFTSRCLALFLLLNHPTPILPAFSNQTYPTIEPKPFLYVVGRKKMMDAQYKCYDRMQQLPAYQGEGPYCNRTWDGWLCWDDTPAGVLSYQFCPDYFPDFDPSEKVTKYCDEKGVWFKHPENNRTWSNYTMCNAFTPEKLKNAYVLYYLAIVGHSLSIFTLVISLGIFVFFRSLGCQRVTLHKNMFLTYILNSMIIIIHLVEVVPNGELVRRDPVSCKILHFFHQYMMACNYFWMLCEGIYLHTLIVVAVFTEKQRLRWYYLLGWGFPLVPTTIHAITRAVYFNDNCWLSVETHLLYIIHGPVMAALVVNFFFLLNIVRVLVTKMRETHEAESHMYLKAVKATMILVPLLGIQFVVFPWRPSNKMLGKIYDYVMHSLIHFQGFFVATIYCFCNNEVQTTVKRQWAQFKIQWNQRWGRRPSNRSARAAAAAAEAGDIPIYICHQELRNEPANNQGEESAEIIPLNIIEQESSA

[3] = DRUGMATRIX: Sigma2 radioligand binding (ligand: [3H] Ifenprodil); type: cell membranes, Rattus norvegicus, Wistar, Brain, Membrane; details: Not Active = under 50% inhibition at 10 µM
[4] = target: Vasopressin V1a receptor (Homo sapiens, UniProt P37288); type: cell membranes, Membrane; details: hek293; note: in other assays of this panel Not Active means under 50% inhibition at 10 µM
Sequence of Vasopressin V1a receptor (P37288 whole entry): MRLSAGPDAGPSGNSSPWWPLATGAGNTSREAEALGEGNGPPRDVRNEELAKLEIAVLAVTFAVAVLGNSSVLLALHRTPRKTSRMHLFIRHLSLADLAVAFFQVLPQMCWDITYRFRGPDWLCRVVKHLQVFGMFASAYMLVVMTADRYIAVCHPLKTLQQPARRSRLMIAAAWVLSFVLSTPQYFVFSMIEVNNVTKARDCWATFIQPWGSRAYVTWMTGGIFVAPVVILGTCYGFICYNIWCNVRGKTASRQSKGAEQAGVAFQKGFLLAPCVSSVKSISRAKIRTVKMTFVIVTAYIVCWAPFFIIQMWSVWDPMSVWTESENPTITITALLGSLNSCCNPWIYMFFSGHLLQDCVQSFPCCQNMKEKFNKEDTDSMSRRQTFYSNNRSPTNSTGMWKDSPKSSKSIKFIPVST

[5] = DRUGMATRIX: GABAA, Flunitrazepam, Central radioligand binding (ligand: [3H] Flunitrazepam); type: cell membranes, Rattus norvegicus, Wistar, Brain, Membrane; details: Not Active = under 50% inhibition at 10 µM
[6] = target: T3, Muscarinic acetylcholine receptor M4 (Homo sapiens, UniProt P08173); type: cell membranes, CHO-K1, Membrane; details: cho-k1; note: in other assays of this panel Not Active means under 50% inhibition at 10 µM
T3 sequence (P08173 whole entry): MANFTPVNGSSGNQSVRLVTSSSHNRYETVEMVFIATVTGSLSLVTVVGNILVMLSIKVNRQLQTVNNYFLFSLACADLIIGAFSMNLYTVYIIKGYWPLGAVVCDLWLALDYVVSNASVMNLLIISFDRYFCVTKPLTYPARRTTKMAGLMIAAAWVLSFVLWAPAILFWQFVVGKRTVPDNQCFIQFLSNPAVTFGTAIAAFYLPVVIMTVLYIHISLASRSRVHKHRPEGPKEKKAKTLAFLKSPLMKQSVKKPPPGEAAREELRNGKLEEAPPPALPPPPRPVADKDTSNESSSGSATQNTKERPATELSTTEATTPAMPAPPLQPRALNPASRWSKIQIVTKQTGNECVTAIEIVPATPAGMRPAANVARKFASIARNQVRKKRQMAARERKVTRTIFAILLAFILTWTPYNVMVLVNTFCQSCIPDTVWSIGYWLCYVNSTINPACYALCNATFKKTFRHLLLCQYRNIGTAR

[7] = target: T4, Nitric oxide synthase, inducible (Mus musculus, UniProt P29477); design: species or system Escherichia coli
T4 sequence (P29477 whole entry): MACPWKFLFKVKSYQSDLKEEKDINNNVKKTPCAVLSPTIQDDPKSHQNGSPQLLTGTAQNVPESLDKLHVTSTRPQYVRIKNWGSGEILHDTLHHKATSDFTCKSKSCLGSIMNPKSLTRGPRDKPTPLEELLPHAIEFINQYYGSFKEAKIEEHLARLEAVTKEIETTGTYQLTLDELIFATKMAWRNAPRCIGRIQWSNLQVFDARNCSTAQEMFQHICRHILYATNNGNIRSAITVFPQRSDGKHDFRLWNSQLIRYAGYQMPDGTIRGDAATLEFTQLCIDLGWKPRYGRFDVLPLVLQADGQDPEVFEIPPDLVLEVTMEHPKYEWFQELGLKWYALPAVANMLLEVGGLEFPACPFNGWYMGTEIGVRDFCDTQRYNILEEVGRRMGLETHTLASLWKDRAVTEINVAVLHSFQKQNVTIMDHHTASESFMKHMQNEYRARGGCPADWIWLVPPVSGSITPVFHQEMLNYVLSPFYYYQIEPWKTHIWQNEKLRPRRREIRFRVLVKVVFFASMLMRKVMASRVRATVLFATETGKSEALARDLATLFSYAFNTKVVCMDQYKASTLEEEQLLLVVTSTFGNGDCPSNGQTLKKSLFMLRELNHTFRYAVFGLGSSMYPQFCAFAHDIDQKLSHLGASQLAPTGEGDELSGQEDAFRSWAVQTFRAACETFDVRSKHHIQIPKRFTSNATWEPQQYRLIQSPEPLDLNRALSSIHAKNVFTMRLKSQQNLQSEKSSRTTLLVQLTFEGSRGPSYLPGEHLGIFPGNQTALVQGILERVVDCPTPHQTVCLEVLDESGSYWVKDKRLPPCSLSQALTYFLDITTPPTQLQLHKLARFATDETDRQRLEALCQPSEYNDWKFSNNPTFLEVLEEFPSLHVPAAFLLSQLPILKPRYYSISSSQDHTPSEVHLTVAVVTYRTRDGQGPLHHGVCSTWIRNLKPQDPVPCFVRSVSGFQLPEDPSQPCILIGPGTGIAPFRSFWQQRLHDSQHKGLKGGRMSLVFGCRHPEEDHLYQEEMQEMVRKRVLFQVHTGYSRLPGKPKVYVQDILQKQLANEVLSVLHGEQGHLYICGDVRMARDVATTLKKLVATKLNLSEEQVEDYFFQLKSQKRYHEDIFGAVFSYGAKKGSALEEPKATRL

Row | Compound | IC50 [1] | IC50 [2] | IC50 [3] | Ki [3] | IC50 [4] | IC50 [5] | Ki [5] | IC50 [6] | IC50 [7] | IC50 ([5]; read-out: IC50) [nM] | Ki ([5]; read-out: Ki) [nM]
1 | COc1ccc2c3c1O[C@H]1C[C@@H](O)C=C[C@@]31CCN(C)C2 [GALANTAMINE] | Not Active | Not Active | Not Active | Not Active | Not Active | Not Active | Not Active | Not Active | Not Active |  | 
2 | O=C(O)CCNC(=O)c1ccccc1 [BETAMIPRON] | Not Active | Not Active | Not Active | Not Active | Not Active | Not Active | Not Active | Not Active | Not Active |  | 
3 | C#C[C@]1(OC(C)=O)CC[C@H]2[C@@H]3CCC4=C[C@@H](OC(C)=O)CC[C@@H]4[C@H]3CC[C@@]21C [ETHYNODIOL DIACETATE] | Not Active | Not Active | Not Active | Not Active | Not Active | Not Active | Not Active | Not Active | Not Active |  | 
4 | Oc1cccc(O)c1O [PYROGALLOL] | Not Active | Not Active | Not Active | Not Active | Not Active | Not Active | Not Active | Not Active | Not Active |  | 
5 | O=C/C=C/c1ccccc1 | Not Active | Not Active | Not Active | Not Active | Not Active | Not Active | Not Active | Not Active | Not Active |  | 
6 | CN/C(=N\CCSCc1nc[nH]c1C)NC#N [CIMETIDINE] | Not Active | Not Active | Not Active | Not Active | Not Active | Not Active | Not Active | Not Active | Not Active |  | 
7 | C[n+]1ccc(-c2cc[n+](C)cc2)cc1.[Cl-].[Cl-] [PARAQUAT DICHLORIDE] | Not Active | Not Active | Not Active | Not Active | Not Active | Not Active | Not Active | Not Active | Not Active |  | 
8 | CCCN(CCC)S(=O)(=O)c1ccc(C(=O)O)cc1 [PROBENECID] | Not Active | Not Active | Not Active | Not Active | Not Active | Not Active | Not Active | Not Active | Not Active |  | 
9 | C#CC1(O)CC[C@H]2[C@@H]3CCC4=CC(=O)CC[C@@H]4[C@H]3CC[C@@]21CC (stereo not given in full) [NORGESTREL] | Not Active | Not Active | Not Active | Not Active | Not Active |  |  | Not Active | Not Active | 2360 | 1920
10 | CC[C@H]1CN2CCc3cc(OC)c(OC)cc3[C@@H]2C[C@@H]1C[C@H]1NCCc2cc(OC)c(OC)cc21 [EMETINE] | Not Active | Not Active | Not Active | Not Active | Not Active | Not Active | Not Active | Not Active | Not Active |  | 
